# Measurements from patent publication US12163955B2, “Antibodies to methotrexate and uses thereof” (Ark Diagnostics, Inc., priority 2023, dated 2024).
# What was measured:
# MTX antibodies [1] = experiment: Specificity in absence of MTX, cross-reactivity (MTX Assay); format: binding, rabbit; conditions: no MTX
# Excerpt: “Cross-reactivity” refers to the reaction of an antibody with an antigen that was not used to induce that antibody. “Cross-reactivity” may be determined in a quantitative immunoassay by establishing a standard curve using known dilutions of the target analyte. The standard curve is then used to calculate the apparent concentration of the interfering substance present in various known amounts in samples assayed under similar condition. The cross-reactivity is the apparent concentration divided by the actual concentration multiplied by 100.
# […] Solvent controls were also prepared and tested.
# Cross-reactivity with DAMPA was also tested DAMPA stock solution was spiked into negative serum pool without the presence of MTX.
# [2] = MTX Assay calibration curve (homogeneous enzyme immunoassay, Beckman AU680); format: biochemical
# Procedure: The top clones (281H3/28K1, 321H1/32K2 and 64H1/64K1) were selected based on performance for larger scale production and purification (Table 5). These clones were then used for further studies. To make the initial antibody reagent, both clones were diluted to 100 μg/mL with antibody diluent. Then a 1:4 ratio mixture of […] to Clone 64H1/64K1 was made and spiked into antibody diluent. […]
# The MTX Assay calibration range is from 0.00 to 1.30 μM. Calibration curves were generated on the Beckman AU680 by assaying each calibrator level in quadruplicate. The Beckman AU680 analyzer performs the nonlinear data analysis automatically using multi-parameter curve-fit math model. Typical calibrator separations are shown for the MTX Assay in Table 6. […] The calculation for feasibility lot percent modulation is shown below: • Max Rate=640.3 mA/min. • Negative Calibrator Rate=358.5 mA/min. • High Calibrator Rate (1.30 μM)=608.7 mA/min. • Total Curve ΔmA=High Cal. Rate−Negative Cal.
# [3] = cited from earlier work
# MTX antibodies [4] = experiment: Specificity in absence of MTX, cross-reactivity (MTX Assay); format: binding, rabbit; conditions: Trimethoprim 150 μmol/L, Triamterene 25 μmol/L; for % Cross-reactivity: no MTX
# [5] = single dose; within 15 minutes; cited from earlier work
molecule,measurement,setting,value
"CN(Cc1cnc2nc(N)nc(N)c2n1)c1ccc(C(=O)O)cc1 [DAMPA, 4-(((2,4-diaminopteridin-6-yl)methyl)(methyl)amino)benzoic acid]",Apparent Conc.,MTX antibodies [1]; DAMPA 0.04 μmol/L in negative serum pool,0.023 µmol/L
same,% Cross-reactivity,MTX antibodies [1]; DAMPA 0.04 μmol/L,57.50%
same,Apparent Conc.,MTX antibodies [1]; DAMPA 0.10 μmol/L in negative serum pool,0.052 µmol/L
same,% Cross-reactivity,MTX antibodies [1]; DAMPA 0.10 μmol/L,51.50%
same,Apparent Conc.,MTX antibodies [1]; DAMPA 0.50 μmol/L in negative serum pool,0.215 µmol/L
same,% Cross-reactivity,MTX antibodies [1]; DAMPA 0.50 μmol/L,42.93%
same,Apparent Conc.,MTX antibodies [1]; DAMPA 0.80 μmol/L in negative serum pool,0.187 µmol/L
same,% Cross-reactivity,MTX antibodies [1]; DAMPA 0.80 μmol/L,23.42%
same,Apparent Conc.,MTX antibodies [1]; DAMPA 1.00 μmol/L in negative serum pool,0.188 µmol/L
same,% Cross-reactivity,MTX antibodies [1]; DAMPA 1.00 μmol/L,18.80%
"CN(Cc1cnc2nc(N)nc(N)c2n1)c1ccc(C(=O)N[C@@H](CCC(=O)O)C(=O)O)cc1 [MTX, (2S)-2-[[4-[(2,4-diaminopteridin-6-yl)methyl-methylamino]benzoyl]amino]pentanedioic acid]",Calibration curve separation,[2]; 0.00-0.05 μM,21.5 mA/min
same,Calibration curve separation,[2]; 0.00-1.30 μM,250.2 mA/min
same,Calibration curve separation,[2]; 0.05-0.15 μM,44.9 mA/min
same,Calibration curve separation,[2]; 0.15-0.35 μM,79.7 mA/min
same,Calibration curve separation,[2]; 0.35-0.65 μM,61.0 mA/min
same,Calibration curve separation,[2]; 0.65-1.30 μM,43.1 mA/min
same,Calibrator rate,[2]; Calibrator Conc. 0.00 μM,358.5 mA/min
same,Calibrator rate,[2]; Calibrator Conc. 0.05 μM,380.0 mA/min
same,Calibrator rate,[2]; Calibrator Conc. 0.15 μM,424.8 mA/min
same,Calibrator rate,[2]; Calibrator Conc. 0.35 μM,504.6 mA/min
same,Calibrator rate,[2]; Calibrator Conc. 0.65 μM,565.6 mA/min
same,Calibrator rate,[2]; Calibrator Conc. 1.30 μM,608.7 mA/min
same,MTX serum concentration reached,"[3]; following a 4-hour infusion, pediatric patients with osteosarcoma",up to 3100 μmol/L
same,MTX serum concentration,[3]; high dose therapy for osteosarcoma,exceed 1000 μmol/L
same,MTX decay curve level,"[3]; osteosarcoma, 72 hours",less than 0.3 μmol/L
Nc1nc(N)c2nc(-c3ccccc3)c(N)nc2n1 [Triamterene],No MTX Mean,MTX antibodies [4],0.009 µmol/L
same,% Cross-reactivity,MTX antibodies [4],0.03%
COc1cc(Cc2cnc(N)nc2N)cc(OC)c1OC [Trimethoprim],No MTX Mean,MTX antibodies [4],0.000 µmol/L
same,% Cross-reactivity,MTX antibodies [4],0.00%
"glucarpidase: antidote that converts MTX into DAMPA and glutamate (protein, UniProt P06621 23-415, looked up) Carboxypeptidase G2: ALAQKRDNVLFQAATDEQPAVIKTLEKLVNIETGTGDAEGIAAAGNFLEAELKNLGFTVTRSKSAGLVVGDNIVGKIKGRGGKNLLLMSHMDTVYLKGILAKAPFRVEGDKAYGPGIADDKGGNAVILHTLKLLKEYGVRDYGTITVLFNTDEEKGSFGSRDLIQEEAKLADYVLSFEPTSAGDEKLSLGTSGIAYVQVNITGKASHAGAAPELGVNALVEASDLVLRTMNIDDKAKNLRFNWTIAKAGNVSNIIPASATLNADVRYARNEDFDAAMKTLEERAQQKKLPEADVKVIVTRGRPAFNAGEGGKKLVDKAVAYYKEAGGTLGVEERTGGGTDAAYAALSGKPVIESLGLPGFGYHSDKAEYVDISAIPRRLYMAARLIMDLGAGK",reduction of plasma MTX concentrations,[5],≥ 97%
